This note sets out measurements from US8673957B2, “Fluorescent probe” (Tetsuo Nagano, priority 2003, dated 2014).

A short description of series [1]: Reaction with nitrogen monoxide (NOC 13 as nitrogen monoxide generating agent), excitation/fluorescence spectra and HPLC. The note with it: 1 hour, 0.1 M sodium phosphate buffer (pH 7.4). As to the method:
NOC 13, which is a nitrogen monoxide generating agent, was added to Compound (7), and changes of excitation and fluorescence emission spectra were measured. The compound (7) at 5 μM (cosolvent: 0.1% DMSO) and NOC 13 were incubated at 37° C. for 1 hour in 0.1 M sodium phosphate buffer (pH 7.4), and then excitation and fluorescence spectra were measured. The measurement was performed with slit widths of Ex/Em=2.5/2.5 nm, excitation wavelength of 520 nm, and emission wavelength of 535 nm.

Series [2] is described as follows: Fluorescence spectrum: fluorescence characteristics and quantum yield. Particulars: 0.1 M sodium phosphate buffer (pH 7.4), 20° C. Type of series: physicochemical. As to the method:
The fluorescence characteristics of Compound (7) and Compound (8) were measured. The quantum yield was measured by using F-4500 (Hitachi), and the other spectra were measured by using LS50B (Perkin Elmer). The measurement was performed at 20° C. for a solution of a sample dissolved in 0.1 M sodium phosphate buffer (pH 7.4) using dimethyl sulfoxide of less than 0.2% as a cosolvent. The quantum yield was calculated relative to that of fluorescein, which was 0.85 in aqueous 0.1 M NaOH. When similar quantum yield measurements were performed for a compound of the formula (I) wherein R^6 and R^9 were hydrogen atoms (p-DAMBO) and a compound of the formula (II) wherein R^16 and R^19 were hydrogen atoms (p-DAMBO-T) as controls, the quantum yields were 0.001 and 0.40, respectively.

A short description of series [3]: Effect of pH on the fluorescence intensity. Type of series: physicochemical. Particulars: 0.1 M sodium phosphate buffer, 0.1% DMSO, pH range of from 3 to 13. On the procedure: Compounds (7) and (8) were dissolved in 0.1 M sodium phosphate buffer (cosolvents 0.1% DMSO) adjusted to various pH values, and fluorescence was measured in the same manner as those in the aforementioned (b). […] Therefore, according to the measurement of nitrogen monoxide by using the compound of the present invention, extremely high accuracy of the measurement is achieved for a biosample with pH fluctuation.

Where [4] appears, read: DMSO less than 0.2% as cosolvent.

As for `CC1=C(CCC(=O)O)C(C)=[N+]2C1=C(c1ccc(N)c(N)c1)c1c(C)c(CCC(=O)O)c(C)n1[B-]2(F)F` [Compound (7), 8-(3,4-Diaminophenyl)-2,6-bis(2-carboxyethyl)-4,4-difluoro-1,3,5,7-tetramethyl-4-bora-3a,4a-diaza-s-indacene], in series [1] (compound at 5 μM with NOC 13, 37° C.), the “rate of reaction with nitrogen monoxide (HPLC of product)” value is “extremely rapid reaction”. In addition, the “change of fluorescence after addition of NOC 13” value in series [1] (compound at 5 μM, NOC 13 0-5.0 μM, 37° C., Ex 520 nm / Em 535 nm) is given as “Increase of fluorescence depending on the concentration of added NOC 13”.

With `CC1=C(CCC(=O)O)C(C)=[N+]2C1=C(c1ccc3[nH]nnc3c1)c1c(C)c(CCC(=O)O)c(C)n1[B-]2(F)F` [Compound (8), 8-(5-Benzotriazolyl)-2,6-bis(2-carboxyethyl)-4,4-difluoro-1,3,5,7-tetramethyl-4-bora-3a,4a-diaza-s-indacene], in series [2] (setting [4]), the Emission maximum was found to be 537 nm, the Extinction coefficient was 56000 M⁻¹ cm⁻¹ and the Extinction maximum is 521 nm. In addition, the Relative quantum yield in series [2] (relative to fluorescein (0.85 in aqueous 0.1 M NaOH)) turned out to be 0.74. In addition, the “change in fluorescence intensity with pH” value in series [3] is given as “Almost no change in the fluorescence intensity”.
